Measurements: patent publication US8158621B2, “Methods of treating or preventing autoimmune diseases with 2,4-pyrimidinediamine compounds” (Rigel Pharmaceuticals, Inc., priority 2002, dated 2012)
Where two headings read alike, the source gives them in different places.

How the values were obtained:
[1] = tested on: cultured human mast cells (CHMC); experiment: CHMC low cell density IgE activation: tryptase assay; type: cell-based; details: read-out: CHMC anti-IgE Tryptase
Description: Pellet CHMC cells (980 rpm, 10 min) and resuspend in pre-warmed MT. Add 65 ul of cells to each 96-well plate. Depending on the degranulation activity for each particular CHMC donor, load 1000-1500 cells/well. Mix four times followed by a 1 hr incubation at 37° C. […] Stimulate cells by adding 25 ul of 6× anti-IgE solution to the appropriate plates. Add 25 ul MT to un-stimulated control wells. Mix twice following addition of the anti-IgE. Incubate at 37° C. for 30 minutes. […] Spin plates at 1000 rpm for 10 min to pellet cells. Transfer 25 ul of supernatant to a 96-well black bottom plate and add 100 ul of freshly diluted tryptase substrate solution to each well. Incubate plates at room temperature for 30 min.

[2] = tested on: Human Jurkat T-cells (clone N); experiment: Jurkat T-cell activation (anti-TCR, CD69 upregulation); type: cell-based
Method in brief: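 Jurkat cells in RPMI + 5% FBS preincubated with compound 1 h at 37 °C, then stimulated with anti-TCR C305 at 500 ng/ml for 20 h. CD69 surface expression stained with anti-CD69-APC and read by flow cytometry; IC50 versus solvent-only control.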

[3] = Homo sapiens, Mast cell, Low Density

Structure (SMILES) | IC50 ([1]; low cell density) [µM] | IC50 [2] [µM] | other results
Fc1cnc(Cl)nc1Nn1cccc1 [Compound R935275] |  |  | IC50 [1, 3]: > 10 µM
CC(=O)N1CCN(c2ccc(Nc3nc(NC4CCC4)ncc3F)cc2)CC1 [Compound R945382] | > 10 |  | 
COc1ccc(Nc2ncc(F)c(Nc3ccc4c(c3)C(NC(=O)OC(C)(C)C)CCO4)n2)cc1Cl (racemic) [Compound R950427] | 1.9 |  | 
Fc1cnc(Cl)nc1Nc1cccc(OC(F)(F)F)c1 [Compound R920402] |  |  | IC50 [1, 3]: > 10 µM
OCCOc1ccc(Nc2ncc(F)c(Nc3cccc(O)c3)n2)cc1 [Compound R935155] |  |  | IC50 [1, 3]: 0.401 µM
COc1ccc(Nc2nc(Nc3ccc4c(cnn4C)c3)ncc2F)cc1OC [Compound R935412] | 0.696 |  | 
Cc1ccnc(Nc2nc(Cl)ncc2F)c1 [Compound R920401] |  |  | IC50 [1, 3]: > 10 µM
COc1ccc(Nc2nc(Nc3ccc4[nH]ncc4c3)ncc2F)cc1OC [Compound R935441] | 0.586 |  | 
C[C@@H]1Oc2ccc(Nc3nc(Nc4ccc(C(N)=O)cc4)ncc3F)cc2NC1=O [Compound R950452] | 0.101 |  | 
COc1cc(Nc2nc(Nc3ccc4c(c3)C(N)CCO4)ncc2F)cc(OC)c1 (racemic) [Compound R950436] | 5.53 |  | 
C[C@@H]1Oc2ccc(Nc3nc(Nc4ccc(CNC(=O)OC(C)(C)C)cc4)ncc3F)cc2NC1=O [Compound R950460] | 0.177 |  | 
O=[N+]([O-])c1cc(Nc2ccnc(Nc3ccc(F)c([N+](=O)[O-])c3)n2)ccc1F [Compound R950152] |  |  | IC50 ([2]; Homo sapiens): 2.65 µM
CC(C)c1cccc(Nc2nc(Nc3ccc4oc(CO)cc4c3)ncc2F)c1 [Compound R940286] |  | 4.4 | 
O=C(CNc1cccc(Nc2ncc(F)c(Nc3ccc4c(c3)OCCO4)n2)c1)NCCN1CCOCC1 [Compound R950200] |  | 2.26 | 
O=C(O)COc1ccc(Nc2ncc(F)c(Nc3ccc(OCC(=O)O)cc3)n2)cc1 [Compound R926560] |  | > 10 | 
CNC(=O)COc1cccc(Nc2ncc(F)c(Nc3cnc4c(c3)OC(C)(C)C(=O)N4)n2)c1 [Compound R940345] |  | 5.4 | 
CCOC(=O)c1cnc(N[C@@H](Cc2ccccc2)C(=O)OCC)nc1N[C@@H](Cc1ccccc1)C(=O)OCC [Compound R926526] |  | > 10 | 
Cc1cnc(Nc2ccc(OCc3nnn[nH]3)cc2)nc1Nc1cccc(O)c1 [Compound R920820] |  | > 10 | 
CCOC(=O)c1cnc(Nc2cccc(O)c2)nc1N[C@@H](Cc1ccccc1)C(=O)OCC [Compound R926528] |  | > 10 | 
COC(=O)c1cc(Nc2ncc(F)c(Nc3ccc(O)c(C(=O)OC)c3)n2)ccc1O [Compound R945043] |  |  | IC50 ([2]; Homo sapiens, Jurkat): > 10 µM
OCCn1ncc2ccc(Nc3ncc(F)c(Nc4ccc5cnn(CCO)c5c4)n3)cc21 [Compound R935238] |  | 6.73 | 
COc1cc(-c2ccccc2)c(C)cc1Nc1ncc(Br)c(Nc2cc(C)c(-c3ccccc3)cc2OC)n1 [Compound R925801] |  |  | IC50 ([2]; Homo sapiens, Jurkat): > 10 µM

More lines, main results first:

IC50 ([1]; low cell density) [µM] | IC50 [2] [µM] | Structure (SMILES) | other results
11.3 |  | COc1ccc(Nc2nc(Nc3cc(Cl)cc(Cl)c3)ncc2F)cc1Cl [Compound R926990] | 
0.689 |  | COc1ccc(Nc2nc(Nc3cc(C)c(C)c(C)c3)ncc2F)cc1Cl [Compound R926993] | 
0.199 |  | CNC(=O)COc1cccc(Nc2ncc(F)c(Nc3ccc(OC)c(Cl)c3)n2)c1 [Compound R926989] | 
 | > 10 | O=C(O)COc1cccc(Nc2ncc(F)c(Nc3cccc(O)c3)n2)c1 [Compound R945126] | 
 | 1.1 | CNC(=O)C(C)(Oc1cccc(Nc2ncc(F)c(Nc3ccc(OC(C)C)cc3)n2)c1)C(=O)NC [Compound R935196] | 
 | 11.1 | Cc1nc(COc2cccc(Nc3ncc(F)c(Nc4cccc(O)c4)n3)c2)no1 [Compound R945127] | 
 | 5.63 | CNC(=O)COc1cccc(Nc2ncc(F)c(Nc3ccc(C(C)(C)C)cc3)n2)c1 [Compound R926714] | 
 | 1.98 | CNC(=O)COc1cccc(Nc2ncc(F)c(Nc3ccc4[nH]ncc4c3)n2)c1 [Compound R935279] | 
 | 1.14 | CNC(=O)COc1cccc(Nc2ncc(F)c(Nc3ccc(OC)nc3)n2)c1 [Compound R926886] | 
 | 3.58 | CNC(=O)COc1cccc(Nc2ncc(F)c(Nc3ccc(OC)c(C(F)(F)F)c3)n2)c1 [Compound R926835] | 
